Legend:
Assay type in all cases: in vivo
[1] = tested on: harmful plants ABUTH, AMARE, ECHCG, LOLRI, MATIN, POAAN, SETVI, STEME, ALOMY, DIGSA, KCHSC and VERPE; test: Herbicidal post-emergence action, summary of Tables B1-B12; details: application rate of 1280 or 320 g of active ingredient per hectare; summary in words
Procedure: Seeds of mono- and dicotyledonous weed plants were placed in plastic pots in sandy loam soil (doubly sown with in each case one species of mono- or dicotyledonous weed plants per pot), covered with soil and cultivated in a greenhouse under controlled growth conditions. 2 to 3 weeks after sowing, the test plants were treated at the one-leaf stage. The compounds of the invention, formulated in the form of wettable powders (WP) or as emulsion concentrates (EC), were applied onto the green parts of the plants as aqueous suspension or emulsion with addition of 0.5% additive at a water application rate of 600 liters per hectare (converted). After the test plants had been kept in the greenhouse under optimum growth conditions for about 3 weeks, the activity of the preparations was rated visually in comparison to untreated controls.
(§1) For example, 100% activity=the plants have died, 0% activity=like control plants.
Tables B1 to B12 below show the effects of selected compounds of the general formula (I) according to Table 1 on various harmful plants and an application rate corresponding to 1280 or 320 g/ha, which were obtained by the experimental procedure mentioned above.
As the results of Tables B1-B12 show, compounds no.

[2] = tested on: Matricaria inodora (MATIN); test: Herbicidal pre-emergence action, test C (Table C7); details: dosage 1280 g/ha; visual scoring after about 3 weeks; 100% = plants have died, 0% = like control plants
Text: (§2) Seeds of mono- and dicotyledonous weed plants were placed in plastic pots in sandy loam soil (doubly sown with one species each of mono- or dicotyledonous weed plants per pot) and covered with soil. The compounds of the invention, formulated in the form of wettable powders (WP) or as emulsion concentrates (EC), were then applied onto the surface of the covering soil as aqueous suspension or emulsion with addition of 0.5% additive at a water application rate of 600 liters per hectare (converted). After the treatment, the pots were placed in a greenhouse and kept under good growth conditions for the test plants. After about 3 weeks, the effect of the preparations was scored visually in comparison with untreated controls as percentages. For example, 100% activity=the plants have died, 0% activity=like control plants. Tables C1 to C12 below show the effects of selected compounds of the general formula (I) according to Table 1 on various harmful plants and an application rate corresponding to 1280 or 320 g/ha, which were obtained by the experimental procedure mentioned above.

Poa annua (POAAN) [3] = test: Herbicidal post-emergence action (Table B3); details: rated visually after about 3 weeks, 100% = plants have died, 0% = like control plants
Procedure: (§3) Seeds of mono- and dicotyledonous weed plants were placed in plastic pots in sandy loam soil (doubly sown with in each case one species of mono- or dicotyledonous weed plants per pot), covered with soil and cultivated in a greenhouse under controlled growth conditions. 2 to 3 weeks after sowing, the test plants were treated at the one-leaf stage. The compounds of the invention, formulated in the form of wettable powders (WP) or as emulsion concentrates (EC), were applied onto the green parts of the plants as aqueous suspension or emulsion with addition of 0.5% additive at a water application rate of 600 liters per hectare (converted). After the test plants had been kept in the greenhouse under optimum growth conditions for about 3 weeks, the activity of the preparations was rated visually in comparison to untreated controls. For example, 100% activity=the plants have died, 0% activity=like control plants. Tables B1 to B12 below show the effects of selected compounds of the general formula (I) according to Table 1 on various harmful plants and an application rate corresponding to 1280 or 320 g/ha, which were obtained by the experimental procedure mentioned above.

[4] = tested on: Amaranthus retroflexus (AMARE); test: Herbicidal pre-emergence action, test C (Table C6); details: visual scoring after about 3 weeks, 100% = plants have died, 0% = like control plants
Text: as §2

[5] = tested on: harmful plants ABUTH, AMARE, ECHCG, LOLRI, MATIN, POAAN, SETVI, STEME, ALOMY, DIGSA, KCHSC and VERPE; test: Herbicidal pre-emergence action (test C), summary of Tables C1-C12; details: application rate of 1280 or 320 g of active ingredient per hectare; summary in words
Text: as §2, with “percentages.” for “percentages. For example, 100% activity=the plants have died, 0% activity=like control plants. Tables C1 to C12 below show the effects of selected compounds of the general formula (I) according to Table 1 on various harmful plants and an application rate corresponding to 1280 or 320 g/ha, which were obtained by the experimental procedure mentioned above.”
as §1
Tables C1 to C12 below show the effects of selected compounds of the general formula (I) according to Table 1 on various harmful plants and an application rate corresponding to 1280 or 320 g/ha, which were obtained by the experimental procedure mentioned above.
As the results of Tables C1-C12 show, compounds no.

Stellaria media (STEME) [6] = test: Herbicidal pre-emergence action, test C (Table C8); details: visual scoring after about 3 weeks, 100% = plants have died, 0% = like control plants
Text: as §2

[7] = tested on: Amaranthus retroflexus (AMARE); test: Herbicidal post-emergence action (Table B6); details: visual rating about 3 weeks after treatment, 100% = plants have died, 0% = like control plants
Procedure: as §3

Poa annua (POAAN) [8] = test: Herbicidal pre-emergence action, test C (Table C3); details: visual scoring after about 3 weeks, 100% = plants have died, 0% = like control plants
Text: as §2

[9] = tested on: Abutilon theophrasti (ABUTH); test: Herbicidal pre-emergence action, test C (Table C5); details: visual scoring after about 3 weeks, 100% = plants have died, 0% = like control plants
Text: as §2

Setaria viridis (SETVI) = test: Herbicidal pre-emergence action, test C (Table C4); details: visual scoring after about 3 weeks, 100% = plants have died, 0% = like control plants
Text: as §2

Stellaria media (STEME) [10] = test: Herbicidal post-emergence action (Table B8); details: visual rating about 3 weeks after treatment, 100% = plants have died, 0% = like control plants
Procedure: as §3

[11] = tested on: Abutilon theophrasti (ABUTH); test: Herbicidal post-emergence action (Table B5); details: rated visually after about 3 weeks, 100% = plants have died, 0% = like control plants
Procedure: as §3

Veronica persica (VERPE) [12] = test: Herbicidal post-emergence action (Table B12); details: visual rating about 3 weeks after treatment, 100% = plants have died, 0% = like control plants
Procedure: as §3

Veronica persica (VERPE) [13] = test: Herbicidal pre-emergence action, test C (Table C12); details: dosage 1280 g/ha, visual scoring vs untreated controls
Text: as §2

[14] = tested on: Digitaria sanguinalis (DIGSA); test: Herbicidal pre-emergence action, test C (Table C10); details: dosage 1280 g/ha; visual scoring after about 3 weeks; 100% = plants have died, 0% = like control plants
Text: as §2

| SMILES | herbicidal activity against the harmful plants of Tables B1-B12 in post-emergence treatment [1] | Post-emergence action against Poa annua (POAAN) (Poa annua (POAAN) [3]; 320 g/ha) | Post-emergence action against Poa annua (POAAN) (Poa annua (POAAN) [3]; 1280 g/ha) | Pre-emergence action against Amaranthus retroflexus (AMARE) ([4]; dosage 320 g/ha) | Pre-emergence action against Amaranthus retroflexus (AMARE) ([4]; dosage 1280 g/ha) | herbicidal activity against the harmful plants of Tables C1-C12 in pre-emergence treatment [5] | Pre-emergence action against Stellaria media (STEME) (Stellaria media (STEME) [6]; dosage 320 g/ha) | Pre-emergence action against Stellaria media (STEME) (Stellaria media (STEME) [6]; dosage 1280 g/ha) | Post-emergence action against Amaranthus retroflexus (AMARE) ([7]; dosage 320 g/ha) | Post-emergence action against Amaranthus retroflexus (AMARE) ([7]; dosage 1280 g/ha) | Pre-emergence action against Poa annua (POAAN) (Poa annua (POAAN) [8]; dosage 1280 g/ha) | Pre-emergence action against Abutilon theophrasti (ABUTH) ([9]; dosage 1280 g/ha) | Pre-emergence action against Setaria viridis (SETVI) (Setaria viridis (SETVI); dosage 1280 g/ha) | Post-emergence action against Stellaria media (STEME) (Stellaria media (STEME) [10]; dosage 1280 g/ha) | Post-emergence action against Abutilon theophrasti (ABUTH) ([11]; 1280 g/ha) | Post-emergence action against Veronica persica (VERPE) (Veronica persica (VERPE) [12]; dosage 320 g/ha) | Post-emergence action against Veronica persica (VERPE) (Veronica persica (VERPE) [12]; dosage 1280 g/ha) | also measured |
| --- | --- | --- | --- | --- | --- | --- | --- | --- | --- | --- | --- | --- | --- | --- | --- | --- | --- | --- |
| Fc1cccc(Oc2ccc(Cl)cn2)c1-c1cc(C(F)F)on1 [Example 1-9] | very good herbicidal activity | 100% | 100% | 100% | 100% | very good herbicidal activity | 100% | 100% | 100% | 100% | 100% | 100% | 100% | 100% | 100% |  |  | Pre-emergence action against Matricaria inodora (MATIN) [2]: 90%; Pre-emergence action against Poa annua (POAAN) (Poa annua (POAAN) [8]; dosage 320 g/ha): 100%; Post-emergence action against Stellaria media (STEME) (Stellaria media (STEME) [10]; dosage 320 g/ha): 100%; Post-emergence action against Abutilon theophrasti (ABUTH) ([11]; 320 g/ha): 100% |
| Cc1ccc(-c2cc(C(F)F)no2)c(Oc2ncccc2F)c1 [Example 1-33] | very good herbicidal activity |  |  |  |  | very good herbicidal activity | 90% | 100% |  |  | 90% | 90% | 100% |  |  | 90% | 100% | Pre-emergence action against Veronica persica (VERPE) (Veronica persica (VERPE) [13]): 90% |
| FC(F)c1cc(-c2ccc(Br)cc2Oc2ccc(Cl)cn2)on1 [Example 1-62] | very good herbicidal activity | 100% | 100% | 90% | 100% | very good herbicidal activity |  |  | 100% | 100% | 100% | 90% | 100% | 100% | 100% | 100% | 100% | Pre-emergence action against Veronica persica (VERPE) (Veronica persica (VERPE) [13]): 90%; Pre-emergence action against Digitaria sanguinalis (DIGSA) [14]: 100%; Pre-emergence action against Poa annua (POAAN) (Poa annua (POAAN) [8]; dosage 320 g/ha): 90%; Post-emergence action against Abutilon theophrasti (ABUTH) ([11]; 320 g/ha): 100% |
| Cn1nc(-c2cc(F)ccc2Oc2ccc(Cl)cn2)cc1C(F)F [Example 1-65] | very good herbicidal activity |  |  | 90% | 100% | very good herbicidal activity |  |  | 100% | 100% | 100% |  |  |  |  | 100% | 100% |  |
| Fc1cccc(Oc2ncc(Cl)cc2Cl)c1-c1cc(C(F)(F)F)on1 [Example 1-4] | very good herbicidal activity |  |  |  | 90% | very good herbicidal activity |  |  |  |  |  |  |  | 100% |  |  |  |  |
| Fc1cccc(Oc2ncc(C(F)(F)F)cc2Cl)c1-c1cc(C(F)F)no1 [Example 1-22] | very good herbicidal activity | 100% | 100% |  | 100% | very good herbicidal activity | 90% | 100% |  |  | 100% |  | 90% |  | 100% |  |  |  |
| Cc1ccc(-c2cc(C(F)F)no2)c(Oc2ncc(Cl)cc2Cl)c1 [Example 1-28] | very good herbicidal activity |  | 90% |  |  | very good herbicidal activity |  | 90% | 90% | 100% |  |  | 90% | 100% |  |  | 90% | Pre-emergence action against Setaria viridis (SETVI) (Setaria viridis (SETVI); dosage 320 g/ha): 90% |
| N#Cc1ccc(Oc2cccc(F)c2-c2cc(C(F)(F)F)on2)nc1 [Example 1-3] | very good herbicidal activity |  | 100% | 100% | 100% | very good herbicidal activity | 90% | 100% | 100% | 100% | 90% | 100% | 100% | 90% |  |  |  | Pre-emergence action against Matricaria inodora (MATIN) [2]: 90%; Pre-emergence action against Abutilon theophrasti (ABUTH) ([9]; dosage 320 g/ha): 90%; Pre-emergence action against Setaria viridis (SETVI) (Setaria viridis (SETVI); dosage 320 g/ha): 100% |
